In patent US8987249B2, “Substituted 2-Aza-bicyclo[2.2.1]heptane-3-carboxylic acid (benzyl-cyano-methyl)-amides inhibitors of Cathepsin C” (Boehringer Ingelheim International GmbH, priority 2013, dated 2015):

Experiments:
[1] = molecular target: recombinant human DPPI (Cathepsin C) (Homo sapiens (Human), UniProt P53634); experiment: Inhibition of human DPPI (Cathepsin C); type: biochemical; conditions: substrate Gly-Arg-AMC
Protocol: Inhibition of Human DPPI (Cathepsin C)
Bovine serum albumin (BSA; Prod. No. A3059) and Dithiothreitol (DTT; Prod. No D0632) were from Sigma. […] The DPP1 inhibitor Gly-Phe-DMK was purchased from MP Biomedicals (Prod.-No. 03DK00625). The recombinant human DPPI was purchased from Prozymex. All other materials were of highest grade commercially available.
The following buffers were used: MES buffer: 25 mM MES, 50 mM NaCl, 5 mM DTT, adjusted to pH 6.0, containing 0.1% BSA; TAGZyme Buffer: 20 mM NaH2PO4, 150 mM NaCl adjusted to pH 6.0 with HCl
Then, 5 μL of substrate in MES buffer (final concentration 50 μM) were added. The microtiter plates were then incubated at room temperature for 30 min. Then, the reaction was stopped by adding 10 μL of Gly-Phe-DMK in MES-buffer (final concentration 1 μM).
The analysis of the data was performed by calculating the percentage of fluorescence in the presence of test compound in comparison to the fluorescence of the vehicle control after subtracting the background fluorescence using the following formula: (RFU(sample)−RFU(background))*100/(RFU(control)−RFU(background))
Data from these calculations were used to generate IC50 values for inhibition of DPPI, respectively.

[2] = molecular target: recombinant human Cathepsin K (Homo sapiens (Human), UniProt P43235); experiment: Inhibition of human Cathepsin K; type: biochemical; conditions: substrate Z-Gly-Pro-Arg-AMC
Chain of recombinant human Cathepsin K (P43235 115-329): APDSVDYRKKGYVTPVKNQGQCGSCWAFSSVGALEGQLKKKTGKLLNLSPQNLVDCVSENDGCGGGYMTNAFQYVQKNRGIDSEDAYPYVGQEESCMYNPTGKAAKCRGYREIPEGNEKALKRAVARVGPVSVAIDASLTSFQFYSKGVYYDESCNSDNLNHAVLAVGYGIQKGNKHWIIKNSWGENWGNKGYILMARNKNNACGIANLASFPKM
From the text: Inhibition of Human Cathepsin K
Materials: Microtiterplates (Optiplate-384 F were purchased from PerkinElmer (Prod. No. 6007270). The substrate Z-Gly-Pro-Arg-AMC was from Biomol (Prod.-No. P-142). L-Cysteine (Prod. No. 168149) was from Sigma. Sodium acetate was from Merck (Prod.-No. 6268.0250), EDTA was from Fluka (Prod.-No. 03680). The inhibitor E-64 was purchased from Sigma (Prod.-No. E3132). The recombinant human Cathepsin K proenzyme was purchased from Biomol (Prod. No. SE-367). All other materials were of highest grade commercially available.
The following buffers were used: Activation buffer: 32.5 mM sodium acetate, adjusted to pH 3.5 with HCl; Assay buffer: 150 mM sodium acetate, 4 mM EDTA, 20 mM L-Cysteine, adjusted to pH 5.5 with HCl,
To activate the proenzyme, 5 μl procathepsin K were mixed with 1 ul activation buffer, and incubated at room temperature for 30 min.
5 μL test compound (final concentration 0.1 nM to 100 μM) in aqua bidest (containing 4% DMSO, final DMSO concentration 1%) were mixed with 10 uL of Cathepsin K in assay buffer (final concentration 2 ng/μL) and incubated for 10 min. […] The plates were then incubated at room temperature for 60 min. Then, the reaction was stopped by adding 10 μL of E64 in assay buffer (final concentration 1 μM). The fluorescence in the wells was determined using a Molecular Devices SpectraMax M5 Fluorescence Reader (Ex 360 nm, Em 460 nm).
Each assay microtiter plate contains wells with vehicle controls (1% DMSO in bidest) as reference for non-inhibited enzyme activity (100% Ctl; high values) and wells with inhibitor (E64 in bidest+1% DMSO, final concentration […]) as controls for background fluorescence (0% Ctl; low values). The analysis of the data was performed by calculating the percentage of fluorescence in the presence of test compound in comparison to the fluorescence of the vehicle control after subtracting the background fluorescence: (RFU(sample)−RFU(background))*100/(RFU(control)−RFU(background))
Data from these calculations were used to generate IC50 values for inhibition of Cathepsin K, respectively.

Chain of recombinant human DPPI (Cathepsin C) (P53634 231-394): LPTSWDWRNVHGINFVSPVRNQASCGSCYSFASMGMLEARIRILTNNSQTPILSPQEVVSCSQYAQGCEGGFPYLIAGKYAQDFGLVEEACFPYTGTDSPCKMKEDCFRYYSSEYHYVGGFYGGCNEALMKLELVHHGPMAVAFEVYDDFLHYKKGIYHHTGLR
Chain of recombinant human DPPI (Cathepsin C) (P53634 395-463): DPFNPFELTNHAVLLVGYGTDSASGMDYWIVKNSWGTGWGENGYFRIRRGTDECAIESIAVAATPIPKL
Chain of recombinant human DPPI (Cathepsin C) (P53634 25-134): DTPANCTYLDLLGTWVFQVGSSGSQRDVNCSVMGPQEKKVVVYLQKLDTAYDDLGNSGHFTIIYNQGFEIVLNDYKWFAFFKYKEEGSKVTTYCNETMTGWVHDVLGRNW

| SMILES | IC50 [1] | IC50 [2] |
| --- | --- | --- |
| Cc1occc1-c1ccc(CC(C#N)NC(=O)[C@H]2N[C@@H]3CC[C@H]2C3)c(F)c1 (stereo partly shown) [Example 92] | 17.7 nM | 8200 nM |
| COC(=O)c1cc(-c2ccc(C[C@@H](C#N)NC(=O)[C@H]3N[C@@H]4CC[C@H]3C4)c(F)c2)cs1 [Example 17] | 2.6 nM | 6100 nM |
| N#C[C@H](Cc1ccc(-c2ccc(C(=O)O)s2)cc1F)NC(=O)[C@H]1N[C@@H]2CC[C@H]1C2 [Example 115] | 37.8 nM | 2300 nM |
| CCc1ncc(-c2ccc(C[C@@H](C#N)NC(=O)[C@H]3N[C@H]4C[C@@H]3[C@@H]3C[C@@H]34)c(F)c2)s1 [Example 113] | 36.4 nM | 8300 nM |
| N#C[C@H](Cc1ccc(-c2ccc3c(c2)CC(=O)N3)cc1F)NC(=O)[C@H]1N[C@H]2C[C@@H]1[C@@H]1C[C@@H]12 [Example 134] | 17.8 nM | 6700 nM |
| N#C[C@H](Cc1ccc(-c2cnn(C(=O)C3CCOCC3)c2)cc1F)NC(=O)[C@H]1N[C@@H]2CC[C@H]1C2 [Example 74] | 11.4 nM | 2500 nM |
| N#C[C@H](Cc1ccc(-c2cccs2)cc1F)NC(=O)[C@H]1N[C@@H]2CC[C@H]1C2 [Example 36] | 4.7 nM | 3000 nM |
| CS(=O)(=O)c1ccc(-c2ccc(C[C@@H](C#N)NC(=O)[C@H]3N[C@H]4C[C@@H]3[C@@H]3C[C@@H]34)c(F)c2)cc1 [Example 141] | 36.6 nM | 8800 nM |
| N#CC(Cc1ccc(-c2ccc3c(c2)CC(=O)N3)cc1F)NC(=O)[C@H]1N[C@@H]2CC[C@H]1C2 (stereo partly shown) [Example 79] | 12 nM | 3500 nM |
| CNC(=O)c1ccc(-c2ccc(C[C@@H](C#N)NC(=O)[C@H]3N[C@@H]4CC[C@H]3C4)c(F)c2)cc1 [Example 186] | 9.6 nM | 3500 nM |
| Cc1ccc(-c2ccc(C[C@@H](C#N)NC(=O)[C@H]3N[C@@H]4CC[C@H]3C4)c(F)c2)o1 [Example 27] | 4 nM | 3200 nM |
| CC(C)(C)n1cc(-c2ccc(C[C@@H](C#N)NC(=O)[C@H]3N[C@@H]4CC[C@H]3C4)c(F)c2)cn1 [Example 23] | 3.7 nM | 3800 nM |
| Cn1c(=O)oc2cc(-c3ccc(CC(C#N)NC(=O)[C@H]4N[C@@H]5CC[C@H]4C5)c(F)c3)ccc21 (stereo partly shown) [Example 107] | 25.9 nM | 4700 nM |
| N#C[C@H](Cc1ccc(-c2cn[nH]c2)cc1F)NC(=O)[C@H]1N[C@@H]2CC[C@H]1C2 [Example 69] | 9.9 nM | 2400 nM |
| N#CC(Cc1ccc(-c2ccc3c(c2)COC3=O)cc1F)NC(=O)[C@H]1N[C@@H]2CC[C@H]1C2 (stereo partly shown) [Example 11] | 1.7 nM | 2600 nM |
| N#C[C@H](Cc1ccc(-c2ccccc2)cc1F)NC(=O)[C@H]1N[C@@H]2CC[C@H]1C2 [Example 75] | 11.4 nM | 5300 nM |
| N#Cc1sccc1-c1ccc(C[C@@H](C#N)NC(=O)[C@H]2N[C@@H]3CC[C@H]2C3)c(F)c1 [Example 85] | 14 nM | 3000 nM |
| Cc1n[nH]cc1-c1ccc(CC(C#N)NC(=O)[C@H]2N[C@@H]3CC[C@H]2C3)c(F)c1 (stereo partly shown) [Example 104] | 24.9 nM | 10300 nM |
| COc1ncc(-c2cn(-c3ccc(C[C@@H](C#N)NC(=O)[C@H]4N[C@@H]5CC[C@H]4C5)c(F)c3)nn2)cn1 [Example 66] | 9.4 nM | 4800 nM |
| COCCN1CCN(C(=O)c2cc(-c3ccc(C[C@@H](C#N)NC(=O)[C@H]4N[C@@H]5CC[C@H]4C5)c(F)c3)cs2)CC1 [Example 228] | 1.6 nM | 2000 nM |
| N#C[C@H](Cc1ccc(-c2ccco2)cc1F)NC(=O)[C@H]1N[C@@H]2CC[C@H]1C2 [Example 73] | 11.2 nM | 3100 nM |
| N#C[C@@H](Cc1ccc(-c2ccc3ncsc3c2)cc1F)NC(=O)[C@H]1N[C@@H]2CC[C@H]1C2 [Example 45] | 6.3 nM | 4400 nM |

| SMILES | IC50 [1] | IC50 [2] |
| --- | --- | --- |
| CS(=O)(=O)Nc1ccc(-c2ccc(C[C@@H](C#N)NC(=O)[C@H]3N[C@H]4C[C@@H]3[C@@H]3C[C@@H]34)c(F)c2)cc1 [Example 140] | 21.5 nM | 8400 nM |
| N#C[C@H](Cc1ccc(-c2cccc(S(N)(=O)=O)c2)cc1F)NC(=O)[C@H]1N[C@@H]2CC[C@H]1C2 [Example 37] | 4.7 nM | 5100 nM |
| Cc1ncc(-c2ccc(C[C@@H](C#N)NC(=O)[C@H]3N[C@@H]4CC[C@H]3C4)c(F)c2)s1 [Example 25] | 3.9 nM | 6300 nM |
| N#C[C@H](Cc1ccc(-c2ccsc2)cc1F)NC(=O)[C@H]1N[C@@H]2CC[C@H]1C2 [Example 18] | 2.7 nM | 3000 nM |
| N#C[C@H](Cc1ccc(-c2ccc(C(N)=O)cc2)cc1F)NC(=O)[C@H]1N[C@H]2C[C@@H]1[C@@H]1C[C@@H]12 [Example 130] | 43.5 nM | 10200 nM |
| N#C[C@H](Cc1ccc(-c2ccc(Cl)nc2)cc1F)NC(=O)[C@H]1N[C@H]2C[C@@H]1[C@@H]1C[C@@H]12 [Example 145] | 53.8 nM | 7400 nM |
| CC(=O)n1cc(-c2ccc(C[C@@H](C#N)NC(=O)[C@H]3N[C@@H]4CC[C@H]3C4)c(F)c2)cn1 [Example 20] | 3.1 nM | 2900 nM |
| COC(=O)Cn1cc(-c2ccc(C[C@@H](C#N)NC(=O)[C@H]3N[C@@H]4CC[C@H]3C4)c(F)c2)cn1 [Example 13] | 1.9 nM | 3400 nM |
| N#C[C@H](Cc1ccc(-n2cc(-c3ccc4occc4c3)nn2)cc1F)NC(=O)[C@H]1N[C@@H]2CC[C@H]1C2 [Example 84] | 13.7 nM | 4900 nM |
| N#C[C@H](Cc1ccc(-c2cnc(N3CCOCC3)s2)cc1F)NC(=O)[C@H]1N[C@@H]2CC[C@H]1C2 [Example 59] | 8.5 nM | 2500 nM |
| COC(=O)c1cc(-c2ccc(C[C@@H](C#N)NC(=O)[C@H]3N[C@H]4C[C@@H]3[C@@H]3C[C@@H]34)c(F)c2)cs1 [Example 133] | 16.1 nM | 19400 nM |
| CN1C(=O)Cc2ccc(-c3cc(F)c(CC(C#N)NC(=O)[C@H]4N[C@@H]5CC[C@H]4C5)c(F)c3)cc21 (stereo partly shown) [Example 61] | 8.7 nM | 10900 nM |
| CCCn1cc(-c2ccc(C[C@@H](C#N)NC(=O)[C@H]3N[C@@H]4CC[C@H]3C4)c(F)c2)cn1 [Example 30] | 4.2 nM | 3100 nM |
| CNC(=O)c1cc(-c2ccc(C[C@@H](C#N)NC(=O)[C@H]3N[C@@H]4CC[C@H]3C4)c(F)c2)cs1 [Example 161] | 1.9 nM | 10700 nM |
| N#CC(Cc1ccc(-c2ccoc2)cc1F)NC(=O)[C@H]1N[C@@H]2CC[C@H]1C2 (stereo partly shown) [Example 103] | 24.9 nM | 5900 nM |
| CCc1ncc(-c2ccc(C[C@@H](C#N)NC(=O)[C@H]3N[C@@H]4CC[C@H]3C4)c(F)c2)s1 [Example 46] | 6.9 nM | 4000 nM |
| CN1C(=O)Cc2ccc(-c3ccc(C[C@@H](C#N)NC(=O)[C@H]4N[C@@H]5CC[C@H]4C5)c(Cl)c3)cc21 [Example 81] | 13.1 nM | 4500 nM |
| CNS(=O)(=O)c1ccc(-c2ccc(CC(C#N)NC(=O)[C@H]3N[C@@H]4CC[C@H]3C4)c(F)c2)cc1 (stereo partly shown) [Example 51] | 7.5 nM | 4900 nM |
| CC(=O)NCCn1cc(-c2ccc(C[C@@H](C#N)NC(=O)[C@H]3N[C@@H]4CC[C@H]3C4)c(F)c2)cn1 [Example 38] | 4.8 nM | 2900 nM |
| CC(C)Cn1cc(-c2ccc(C[C@@H](C#N)NC(=O)[C@H]3N[C@@H]4CC[C@H]3C4)c(F)c2)cn1 [Example 64] | 9.3 nM | 4200 nM |
| Cn1c(=O)c2cc(C[C@@H](C#N)NC(=O)[C@H]3N[C@@H]4CC[C@H]3C4)c(F)cc2c2ccccc21 [Example 326] | 1.9 nM | 1100 nM |
| N#CC(Cc1ccc2c(c1)c(=O)[nH]c1cc(Cl)ccc12)NC(=O)[C@H]1N[C@@H]2CC[C@H]1C2 (stereo partly shown) [Example 297] | 3.2 nM | 12400 nM |
